Data from PubChem BioAssay (NCI).
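Protocol summary: plate cells (96-well), add compound at 5 concentrations, incubate 48 h, interpolate endpoints linearly. Here, GI50 denotes the concentration required for 50% inhibition of growth. The concentration for full growth arrest is given as TGI.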

Columns and labels:
Experiment in all cases: NCI-60 cell line screen, 48 h
MDA-MB-435 = test system: MDA-MB-435
TK-10 renal = test system: TK-10 renal
RPMI-8226 leukemia = test system: RPMI-8226 leukemia
UACC-257 melanoma = test system: UACC-257 melanoma
SR leukemia = test system: SR leukemia
LOX IMVI melanoma = test system: LOX IMVI melanoma
OVCAR-5 ovarian = test system: OVCAR-5 ovarian

Row | Compound | GI50 (MDA-MB-435) [µM] | TGI (MDA-MB-435) [µM] | GI50 (TK-10 renal) [µM] | TGI (TK-10 renal) [µM] | GI50 (RPMI-8226 leukemia) [µM] | TGI (RPMI-8226 leukemia) [µM] | GI50 (UACC-257 melanoma) [µM] | TGI (UACC-257 melanoma) [µM] | GI50 (SR leukemia) [µM] | TGI (SR leukemia) [µM] | GI50 (LOX IMVI melanoma) [µM] | TGI (LOX IMVI melanoma) [µM] | GI50 (OVCAR-5 ovarian) [µM] | TGI (OVCAR-5 ovarian) [µM]
1 | COc1cccc2c1c(C(=O)C(=O)Nc1cc(C)no1)cn2Cc1ccc(F)cc1 | 1.08 | 3.64 | 15.3 | > 100 | 2.11 | > 24.2 | 9.25 | 71.8 | 0.573 | > 100 | 7.87 | > 100 | > 55.5 | > 100
2 | COc1ccc2c(c1)cn1c3ccc(O)cc3nc(N)c21 | 0.0217 | 0.0749 | 1.13 | 5.6 | 1.75 | 12.8 | 0.0793 | 1 | 0.0743 | 2.76 | 0.0712 | 1.94 | 1.57 | 18.3
3 | CCOC(=O)c1cc(NS(=O)(=O)c2ccccc2)cc(C(=O)OCC)c1 | > 100 | > 100 | > 100 | > 100 | > 100 | > 100 | > 100 | > 100 | > 100 | > 100 | > 100 | > 100 | > 100 | > 100
4 | COc1ccc(/C=C(/C#N)C(N)=O)cc1OC | – | > 100 | – | > 100 | – | > 100 | – | > 100 | – | > 100 | – | > 100 | – | > 100
5 | COc1cc2c(c(OC)c1)C1c3ccccc3NC(=O)N1CC2 (configuration not stated) | – | – | 8.98 | > 100 | 5.39 | 68.2 | 51 | > 100 | 2.77 | > 100 | 5.58 | > 100 | 4.96 | > 100
6 | Cn1cc(-c2ccc3occ(-c4cccc(-c5ccncc5)c4)c3n2)cn1 | 0.176 | 0.525 | 2.1 | > 100 | – | – | 2.6 | > 100 | 0.23 | > 100 | 0.564 | > 100 | 3.96 | > 100
7 | CCCCC(CC)CN=C(N)NC(N)=NCCCCCCN=C(N)NC(N)=NCC(CC)CCCC (configuration not stated) | – | – | 4.03 | > 100 | – | – | 2.62 | 8.73 | – | – | – | – | – | –
8 | CN(C)CCCNC(CC#N)CCC#N (configuration not stated) | – | > 10 | – | > 10 | – | – | – | > 10 | – | – | – | > 10 | – | > 10
9 | O=C1CC(c2ccc(O)cc2)C2(O1)C(=O)OC(C(O)CO)C2O (configuration not stated) | – | > 100 | – | > 100 | – | > 100 | – | > 100 | – | – | – | > 100 | – | > 100
10 | Cc1ccccc1[P+](Cc1ccccc1)(c1ccccc1)c1ccccc1 | 0.601 | 3.71 | – | – | 0.603 | 6.34 | 0.623 | 4.23 | 1.6 | 15.7 | 2.27 | 15.3 | 2.46 | > 100
11 | O=c1cc(-c2ccccc2)[nH]c2ccccc12 | – | – | – | > 100 | 1.18 | > 63 | > 79.3 | > 100 | – | > 100 | 2.72 | > 100 | – | > 100
12 | C[C@@H]1C[C@H]2CC[C@H](O2)[C@H](C)C(=O)O[C@@H](C)C[C@@H]2CC[C@@H](O2)[C@@H](C)C(=O)O[C@H](C)C[C@H]2CC[C@H](O2)[C@H](C)C(=O)O[C@@H](C)C[C@@H]2CC[C@@H](O2)[C@@H](C)C(=O)O1 | – | > 49.3 | – | > 48.5 | – | – | – | 0.806 | – | > 42.8 | – | 2.82 | – | > 100
13 | COc1ccc(-c2nn3c(-c4cc(F)c(Cl)cc4Cl)nnc3s2)cc1 | 4.86 | > 100 | 56.5 | > 100 | 19.6 | 52.7 | 32.2 | > 100 | – | – | 26.4 | > 100 | 25.5 | 88.9
14 | O=C1/C(=C\c2c[nH]c3ccccc23)c2ccccc2N1c1c(Cl)cccc1Cl | 1.77 | 3.57 | 2.17 | 5 | 1.89 | 4.68 | 2.34 | 4.61 | 2.33 | 5.16 | 1.59 | 3.09 | – | –
15 | CN(C)CCNc1c2c(c(NCCN(C)C)c3[nH]ccc13)C(=O)c1ccccc1C2=O | 1.54 | 5.14 | 1.57 | 5.14 | 0.737 | 2.79 | 4.71 | 19 | – | – | 0.737 | 3.39 | 2.1 | 13
16 | COc1ccc(/C=C2\CCCC3=C2N=C2SC(C)=NN2C3c2ccc(OC)c(OC)c2)cc1OC (configuration not stated) | 3.27 | 69.3 | 5.99 | 51.2 | – | – | 9.17 | > 100 | 3.66 | > 100 | 4.52 | 35.2 | 36 | > 100
17 | Oc1cccc2ccc(N/N=C/c3cc(CN4CCCCC4)c(O)c4ncccc34)nc12 | 0.0444 | 1.73 | 0.0527 | 11 | 0.0371 | 9.29 | 0.256 | 1.04 | – | – | 0.0553 | 1.61 | 0.0639 | 13
18 | COc1ccc(-c2csc(N(C(=O)N3CCN(c4cc5c(cc4F)c(=O)c(C(=O)O)cn5C4CC4)CC3)c3ccccc3)n2)cc1 | 3.51 | > 100 | 1.7 | 39.9 | – | – | 2.35 | 6.71 | 2.78 | > 100 | – | – | 3.29 | > 100
19 | COc1ccc(-c2ccc(/C=N/n3c(COc4ccc(Cl)cc4Cl)nn(CN4CCOCC4)c3=S)o2)c([N+](=O)[O-])c1 | 18.6 | 51.5 | 14.1 | 49.2 | 12.7 | 40.1 | – | – | 27.7 | 68.4 | – | – | 38.8 | > 100
20 | CCCCCCCCN=C(N)c1ccc(N2CCN(c3ccc(C(N)=NCCCCCCCC)cc3)CC2)cc1 | 1.25 | 3.23 | 1.72 | 8.92 | – | – | 4.03 | 13.2 | 0.97 | 2.26 | 1.92 | 9.01 | 3.27 | 14.4
21 | COc1ccc(-c2n/c(=C\c3c(O)[nH]c4ccc(OC)cc34)cc3c2=Nc2ccccc2-3)cc1 | – | – | 2.09 | 3.87 | 3.21 | 37.3 | 2.07 | 4.48 | – | – | 19.9 | 75.4 | 44.5 | > 100
